In PMC9296036, “A peptide interfering with the dimerization of oncogenic KITENIN protein and its stability suppresses colorectal tumour progression” (Clinical and Translational Medicine, 2022):
Entries after “also recorded” stand apart in the source; their conditions may differ. Ends that are not written are not given here.

Test system: CT-26/EV tumours
Test: Syngeneic subcutaneous tumour model, CT-26/EV cells in BALB/c mice
Assay type: in vivo, mouse
Conditions: CT-26/EV (no forced KITENIN overexpression), KDIP 1 mg/kg intravenously alternate days for 14 days
Description: The CT‐26 cell/syngeneic mouse model was used to investigate the in vivo effects of KDIP on colorectal tumourigenesis, as it is reported that a syngeneic mouse tumour model is good for testing the anticancer effects of candidate substances.[25], [26] Male Balb/c mice (5‐week old) were purchased from DaMul Science, Korea and acclimated for 1 week prior to subcutaneous injection of syngeneic CT‐26/EV (3 × 10^6) or CT‐26/KITENIN cells (1 × 10^6) into the dorsum. Tumour volume was calculated using the following equation: V = 1/2 × a × b […], where a and b are the longest and shortest diameters of the tumour (in millimetres), respectively. Tumour volume was measured every other day for 14 days to verify the effects of KDIP. All mice were sacrificed after Day 30 (Figure 7B), and the subcutaneous tumour grafts were surgically excised and weighed.
For the experimental tumour model, CT‐26/EV or CT‐26/KITENIN‐V5 cells were injected into the right back of BALB/c mice to form tumours, and KDIP was injected intravenously according to the timeline shown in Figure 7B. Considering the suppressive effect of KDIP on the cell invasion of CT‐26 cells, the initial test dosage was set to 1 mg/kg, which is equivalent to the half‐maximal inhibitory concentration (IC50) of KDIP on cell invasion. […] After 2 weeks of treatment, the mice were sacrificed and the tumours were analysed. […]

YARVRRRGPRRWRLVSDEAV [KDIP]
tumour growth (in words): little effect on tumor growth; also recorded: little effect on tumour growth
